Laboratory results reported in US20240228488A1 (TAKEDA PHARMACEUTICAL COMPANY LIMITED, priority 2021, published 2024).

Assays:
[1] = target: human activated kallikrein enzyme (Homo sapiens, UniProt P03952); test: Plasma kallikrein inhibition, fluorogenic PFR-AMC substrate, 500 pM activated kallikrein format; format: biochemical; details: 500 pM activated kallikrein, 300 uM PFR-AMC, 30 min preincubation, 10 min reaction; read-out: Primary Dose Response Assay: Average EC50
Outline: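 Enzyme at 500 pM preincubated 30 min RT with inhibitors in 20 mM Tris pH 7.5, 1 mM EDTA, 150 mM NaCl, 0.1% PEG-400, 0.1% Triton X-100. Reaction started with 300 uM PFR-AMC, run 10 min RT; fluorescence read at 460 nm emission, 380 nm excitation. EC50 reported in ranges.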

plasma kallikrein = target: T1, plasma kallikrein (Homo sapiens, UniProt P03952); test: Neat human plasma assay, FXIIa contact pathway-activated, PFR-AMC substrate; format: biochemical; details: citrated human plasma 78% final, 10 nM human FXIIa, 100 μM PFR-AMC; read-out: Human Plasma Assay: IC90
T1 construct: from tissue
Outline: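 Citrated human plasma (78% final) with compound, contact-activated by 10 nM human FXIIa in pKal buffer pH 7.5, with 100 μM PFR-AMC. Fluorescence (360/480 nm) followed 5 min at room temperature; rates versus concentration fitted by 4-parameter equation for IC50/IC90.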

T1 sequence (P03952 391-638 limits assumed): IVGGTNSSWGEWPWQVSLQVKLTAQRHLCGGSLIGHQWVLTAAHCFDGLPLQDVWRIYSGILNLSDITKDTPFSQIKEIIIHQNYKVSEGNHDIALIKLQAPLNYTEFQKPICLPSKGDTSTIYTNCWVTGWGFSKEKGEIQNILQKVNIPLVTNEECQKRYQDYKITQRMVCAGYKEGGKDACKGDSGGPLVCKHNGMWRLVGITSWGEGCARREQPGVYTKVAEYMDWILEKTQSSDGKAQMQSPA
T1 sequence (P03952 20-390 partner limits assumed): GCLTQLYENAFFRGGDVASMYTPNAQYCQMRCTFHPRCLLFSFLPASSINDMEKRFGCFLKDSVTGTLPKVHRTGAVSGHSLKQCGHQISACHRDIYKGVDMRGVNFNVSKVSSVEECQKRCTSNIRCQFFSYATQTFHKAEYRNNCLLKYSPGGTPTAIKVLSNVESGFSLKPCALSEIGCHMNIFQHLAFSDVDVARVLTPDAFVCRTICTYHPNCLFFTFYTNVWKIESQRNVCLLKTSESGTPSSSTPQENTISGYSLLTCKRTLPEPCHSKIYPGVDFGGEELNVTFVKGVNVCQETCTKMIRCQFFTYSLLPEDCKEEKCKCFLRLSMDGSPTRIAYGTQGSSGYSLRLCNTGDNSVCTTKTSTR
human activated kallikrein enzyme, sequence (P03952 391-638 limits assumed): as the sequence (P03952 391-638 limits assumed) above
human activated kallikrein enzyme, sequence (P03952 20-390 partner limits assumed): as the sequence (P03952 20-390 partner limits assumed) above

SMILES	EC50 [1] [nM]	IC90 (plasma kallikrein) [nM]
Cc1cc(NCc2cn3cc(C4CC4)ccc3n2)cc(NC(=O)[C@H]2C[C@@H]2c2cccc(Cl)c2)n1 [Example 338, (1S,2S)-2-(3-chlorophenyl)-N-(4-(((6-cyclopropylimidazo[1,2-a]pyridin-2-yl)methyl)amino)-6-methylpyridin-2-yl)cyclopropane-1-carboxamide]	< 1	1500 to 10000
O=C(Nc1cc(NCc2cn3cc(C4CC4)cc(C4(F)CNC4)c3n2)ccn1)[C@H]1C[C@@H]1c1cccc(Cl)c1 [Example 133, (1S,2S)-2-(3-chlorophenyl)-N-(4-(((6-cyclopropyl-8-(3-fluoroazetidin-3-yl)imidazo[1,2-a]pyridin-2-yl)methyl)amino)pyridin-2-yl)cyclopropane-1-carboxamide]	< 1	400 to 1500
O=C(Nc1cc(NCc2cn3cc(C4CC4)ccc3n2)ccn1)[C@H]1C[C@@H]1c1cc(Cl)ccc1[N+](=O)[O-] (racemic) [Example I-223, rac-(1S*,2S*)-2-(5-chloro-2-nitrophenyl)-N-(4-(((6-cyclopropylimidazo[1,2-a]pyridin-2-yl)methyl)amino)pyridin-2-yl)cyclopropane-1-carboxamide]	< 1	> 48000
Cc1ccnc([C@H]2C[C@@H]2C(=O)Nc2cc(NCc3cn4cc(C5CC5)cc(N5CC(=O)N(COP(=O)(O)O)C5=O)c4n3)ncn2)n1 [Example 466, (3-(6-cyclopropyl-2-(((6-((1S,2S)-2-(4-methylpyrimidin-2-yl)cyclopropane-1-carboxamido)pyrimidin-4-yl)amino)methyl)imidazo[1,2-a]pyridin-8-yl)-2,5-dioxoimidazolidin-1-yl)methyl dihydrogen phosphate]	< 1	1500 to 10000
Cc1cc(NCc2cn3cc(C4CC4)cc(N4CCN(C)CC4)c3n2)cc(NC(=O)[C@H]2C[C@@H]2c2cccc(Cl)c2)n1 [Example 605, (1S,2S)-2-(3-chlorophenyl)-N-(4-(((6-cyclopropyl-8-(4-methylpiperazin-1-yl)imidazo[1,2-a]pyridin-2-yl)methyl)amino)-6-methylpyridin-2-yl)cyclopropane-1-carboxamide]	< 1	400 to 1500
O=C(Nc1cc(NCc2cn3cc(C4CC4)cc(C(=O)N4CCOCC4)c3n2)ncn1)[C@H]1C[C@@H]1c1cccc(Cl)c1 [Example 300, (1S,2S)-2-(3-chlorophenyl)-N-(6-(((6-cyclopropyl-8-(morpholine-4-carbonyl)imidazo[1,2-a]pyridin-2-yl)methyl)amino)pyrimidin-4-yl)cyclopropane-1-carboxamide]	< 1	1500 to 10000
Cc1ccnc([C@H]2C[C@@H]2C(=O)Nc2cc(NCc3cn4cc(C5(F)CC5)cc(N5CC(=O)N(C)C5=O)c4n3)ncn2)n1 [Example 374, (1S,2S)-N-(6-(((6-(1-fluorocyclopropyl)-8-(3-methyl-2,4-dioxoimidazolidin-1-yl)imidazo[1,2-a]pyridin-2-yl)methyl)amino)pyrimidin-4-yl)-2-(4-methylpyrimidin-2-yl)cyclopropane-1-carboxamide]	< 1	< 400
Cc1nc([C@H]2C[C@@H]2C(=O)Nc2cc(NCc3cn4cc(C5CC5)cc(N5CC(=O)N(C)C5=O)c4n3)ncn2)ncc1F (racemic) [Example 489, rac-(1S*,2S*)—N-(6-(((6-cyclopropyl-8-(3-methyl-2,4-dioxoimidazolidin-1-yl)imidazo[1,2-a]pyridin-2-yl)methyl)amino)pyrimidin-4-yl)-2-(5-fluoro-4-methylpyrimidin-2-yl)cyclopropane-1-carboxamide]	< 1	400 to 1500
CN1CCN(c2cc(C3CC3)cn3cc(CNc4nccc(NC(=O)[C@H]5C[C@@H]5c5cccc(Cl)c5)n4)nc23)CC1 [Example 613, (1S,2S)-2-(3-chlorophenyl)-N-(2-(((6-cyclopropyl-8-(4-methylpiperazin-1-yl)imidazo[1,2-a]pyridin-2-yl)methyl)amino)pyrimidin-4-yl)cyclopropane-1-carboxamide]	1 to 10	400 to 1500
O=C(Nc1cc(NCc2cn3cc(C4CC4)ccc3n2)ncn1)[C@H]1C[C@@H]1c1cccc(Cl)c1 (single isomer, unassigned) [Example 57]	1 to 10	> 48000
O=C(Nc1cc(NCc2cn3cc(C4CC4)cc(N4C[C@@H]5C[C@@H]5C4=O)c3n2)ncn1)[C@H]1C[C@@H]1c1cccc(Cl)c1 (racemic) [Example 457, rac-(1S,2S)-2-(3-chlorophenyl)-N-(6-(((6-cyclopropyl-8-((1R*,5S*)-2-oxo-3-azabicyclo[3.1.0]hexan-3-yl)imidazo[1,2-a]pyridin-2-yl)methyl)amino)pyrimidin-4-yl)cyclopropane-1-carboxamide]	1 to 10	400 to 1500
O=C(Nc1nsc(NCc2cn3cc(C4CC4)ccc3n2)n1)[C@H]1C[C@@H]1c1cc(Cl)ccn1 (racemic) [Example 614]	1 to 10	10000 to 48000
CN1CCN(c2cc(C3CC3)cn3cc(CNc4ccnc(NC(=O)[C@H]5C[C@@H]5c5cccc(Cl)c5)n4)nc23)CC1 [Example 88, (1S,2S)-2-(3-chlorophenyl)-N-(4-(((6-cyclopropyl-8-(4-methylpiperazin-1-yl)imidazo[1,2-a]pyridin-2-yl)methyl)amino)pyrimidin-2-yl)cyclopropane-1-carboxamide]	< 1	400 to 1500
Cc1ccnc([C@H]2C[C@@H]2C(=O)Nc2cc(N(C)Cc3cn4cc(C5CC5)cc(N5CC(=O)NC5=O)c4n3)ncn2)n1 [Example 375, (1S,2S)-N-(6-(((6-cyclopropyl-8-(2,4-dioxoimidazolidin-1-yl)imidazo[1,2-a]pyridin-2-yl)methyl)(methyl)amino)pyrimidin-4-yl)-2-(4-methylpyrimidin-2-yl)cyclopropane-1-carboxamide]	< 1	< 400
CN1C(=O)CN(c2cc(C3CC3)cn3cc(CNc4ccnc(NC(=O)[C@H]5C[C@@H]5c5cccc(Cl)c5)c4)nc23)C1=O [Example I-209, (1S,2S)-2-(3-chlorophenyl)-N-(4-(((6-cyclopropyl-8-(3-methyl-2,4-dioxoimidazolidin-1-yl)imidazo[1,2-a]pyridin-2-yl)methyl)amino)pyridin-2-yl)cyclopropane-1-carboxamide]	< 1	400 to 1500
CN1C(=O)CN(c2cc(C3CC3)cn3cc(CNc4cc(NC(=O)[C@H]5C[C@@H]5c5nccc(C(F)F)n5)ncn4)nc23)C1=O (racemic) [Example I-164, rac-(1S*,2S*)-N-(6-(((6-cyclopropyl-8-(3-methyl-2,4-dioxoimidazolidin-1-yl)imidazo[1,2-a]pyridin-2-yl)methyl)amino)pyrimidin-4-yl)-2-(4-(difluoromethyl)pyrimidin-2-yl)cyclopropane-1-carboxamide]	1 to 10	400 to 1500
Cc1ccnc([C@H]2C[C@@H]2C(=O)Nc2cc(N[C@H](C)c3cn4cc(C(C)C)cc(N5CC(=O)N(C)C5=O)c4n3)ncn2)n1 [Example I-679, (1S,2S)—N-(6-(((R)-1-(6-isopropyl-8-(3-methyl-2,4-dioxoimidazolidin-1-yl)imidazo[1,2-a]pyridin-2-yl)ethyl)amino)pyrimidin-4-yl)-2-(4-methylpyrimidin-2-yl)cyclopropane-1-carboxamide]	< 1	< 400
CNCc1cc(C2CC2)cn2cc(CNc3ccnc(NC(=O)[C@H]4C[C@@H]4c4cccc(Cl)c4)c3)nc12 [Example 595, (1S,2S)-2-(3-chlorophenyl)-N-(4-(((6-cyclopropyl-8-((methylamino)methyl)imidazo[1,2-a]pyridin-2-yl)methyl)amino)pyridin-2-yl)cyclopropane-1-carboxamide]	< 1	< 400
Cc1ccnc([C@H]2C[C@@H]2C(=O)Nc2cc(OCc3cn4cc(C5CC5)cc(N5CC(=O)N(CC(C)(C)O)C5=O)c4n3)nc(C)n2)n1 [Example 562, (1S,2S)—N-(6-((6-cyclopropyl-8-(3-(2-hydroxy-2-methylpropyl)-2,4-dioxoimidazolidin-1-yl)imidazo[1,2-a]pyridin-2-yl)methoxy)-2-methylpyrimidin-4-yl)-2-(4-methylpyrimidin-2-yl)cyclopropane-1-carboxamide]	< 1	400 to 1500
NCc1cc(C2CC2)cn2cc(CNc3ccnc(NC(=O)[C@H]4C[C@@H]4c4cccc(Cl)c4)c3)nc12 (racemic) [Example 120, rac-(1S*,2S*)—N-(4-(((8-(aminomethyl)-6-cyclopropylimidazo[1,2-a]pyridin-2-yl)methyl)amino)pyridin-2-yl)-2-(3-chlorophenyl)cyclopropane-1-carboxamide]	< 1	10000 to 48000
O=C(Nc1ncnc(NCc2cn3cc(C4CC4)ccc3n2)n1)[C@H]1C[C@@H]1c1cccc(Cl)c1 (racemic) [Example 344, (rac-(1S*,2S*))-2-(3-chlorophenyl)-N-(4-(((6-cyclopropylimidazo[1,2-a]pyridin-2-yl)methyl)amino)-1,3,5-triazin-2-yl)cyclopropane-1-carboxamide]	1 to 10	1500 to 10000
CC(C)c1ccc2nc(CNc3ccnc(NC(=O)[C@H]4C[C@@H]4c4cccc(Cl)c4)c3)cn2c1 [Example 123, (1S,2S)-2-(3-chlorophenyl)-N-(4-(((6-isopropylimidazo[1,2-a]pyridin-2-yl)methyl)amino)pyridin-2-yl)cyclopropane-1-carboxamide]	< 1	10000 to 48000
